The source of these data is PMC12028158, “Synthesis and In Vitro Evaluation of the Anticancer Effect of Novel Phosphonium Vindoline Derivatives” (International Journal of Molecular Sciences, 2025).

Assay [1] deals with 60 human tumor cell lines (NCI60). Also on record: method as in PMID 39063170. To be noted: previous work; cited from earlier work.
The test system of assay [2] is A2780 cells. Description: Wound healing migration assay. The format is cell-based, human. To be noted: A2780, sub-inhibitory concentrations (0.5 or 1.0 µM), 24 and 48 h. The method, then:
The antimigratory properties of compound 9g were investigated using the in vitro wound healing assay against the ovarian cancer cell line A2780.
The effect of compound 9g on the migration of A2780 cells was assessed using a wound-healing assay. A2780 cells were trypsinized and seeded into specialized wound assay chambers (ibidi GmbH, Martinsried, Germany) at a density of 80,000 cells/insert and the plate was incubated under standard conditions to allow proper attachment. After incubation, the inserts were carefully removed and the wells were washed twice with PBS to eliminate non-adherent cells and debris. The cells were subsequently treated with […] at 0.5 or 1.0 µM in fresh medium containing 2% FBS. The migration of cells toward the wound site was visualized using a phase-contrast inverted microscope (Nikon Instruments Europe, Amstelveen, The Netherlands) and images were captured with a CCD camera (QImaging MicroPublisher Color RTV5.0 Teledyne Photometrics, Tucson, AZ, USA). The percentage of cell migration was calculated at different time intervals (0, 24, and 48 h) by measuring the cell-free area in treated samples against untreated controls using ImageJ software 1.54d (National Institutes of Health, Bethesda, MD, USA). The experiments were conducted twice with at least three parallel samples.

Assay [3] relates to A2780 cells. The assay can be described thus: Cell cycle analysis (propidium iodide flow cytometry). The format is cell-based, human. The method, then:
Based on its promising IC50 and selectivity, compound 9g was selected for further investigations, including cell cycle analysis. Treatment with derivative 9g induced concentration- and time-dependent cell cycle disturbances in A2780 ovarian cancer cells, accompanied by apoptosis (Figure 3). […] After a 48 h exposure, the lower concentration maintained this pattern (G0/G1 elevation and S and G2/M reduction).
A2780 cells were seeded onto 12-well plates at densities of 200,000 cells per well and the plates were then incubated overnight under standard cell culture conditions. Then, the media were removed and the cells in each well were washed with phosphate-buffered saline (PBS) and treated with 1000 µL of fresh medium containing 1.5 or 3.0 µM of compound 9g for 24 or 48 h. After the incubation, the cells were washed with PBS and harvested using trypsinization. The cell suspensions were centrifuged at 1100 rpm for 5 min at room temperature. The cells were rewashed and fixed in 500 µL of cold 70% ethanol for 30 min. Following the fixation, cells were centrifuged at 1300 rpm for 5 min at 4 °C and the pellets were resuspended in 300 µL staining solution (containing 10 µg/mL propidium iodide, 0.1% Triton-X, 0.1% sodium citrate, and 10 µg/mL RNase-A in water). The samples were stored in the dark at room temperature for 30 min. The stained cells were then analyzed using a flow cytometer (CytoFLEX, Beckman Coulter, Brea, CA, USA), recorded by CytExpert Software 2.5.0.77 (Beckman Coulter), ensuring that at least 20,000 events per sample were evaluated. The percentages of cells in different phases of the cell cycle (subG1, G1, S, and G2/M) were determined using ModFit LT 3.3.11 software (Verity Software House, Topsham, ME, USA); the subG1 fraction indicated the apoptotic cell population, as referenced by Vermes et al.. […]

Turning to `CCC12C=CCN3CC[C@@]4(c5ccc(OC)cc5N(C)[C@H]4[C@@](O)(C(=O)OC)[C@@H]1OC(C)=O)[C@@H]32` (some centres unmarked) [compound 2, vindoline], the “antiproliferative effects (in words)” value in assay [1] is on record as “do not exert antiproliferative effects”.
In the case of `CC[C@]12C=CCN3CC[C@@]4(c5ccc(OC)cc5N(C)[C@H]4[C@@](O)(C(=O)OC)[C@@H]1OC(=O)CCC[P+](c1ccccc1)(c1ccccc1)c1ccccn1)[C@@H]32` [9g], the cell migration result in assay [2] was “concentration- and duration-dependent reduction in cell migration”. For the same molecule, in assay [3] (A2780, 1.5 μM and 3.0 μM, 24 h), the “S and G2/M phase populations” value is reported as “decreasing”; the “proportion of cells in the G0/G1 phase” value was “significantly increased”. For the same molecule, in assay [3] (A2780, particularly after the more prolonged exposure (48 h)), the subG1 cell population entry is recorded as “remarkable increase”.
